The values below are quoted from earlier work in patent US7122567B2, “Heterocyclic amide derivatives having glycogen phosphorylase inhibitory activity” (AstraZeneca AB, priority 2002, dated 2006).

The conditions of series [1]: db/db and ob/ob mice following treatment.
The conditions of series [2]: conscious dogs, following a glucagon challenge.

Regarding `O=C(N[C@@H](Cc1ccc(F)cc1)C(=O)N1CCC(O)CC1)c1cc2cc(Cl)ccc2[nH]1` [CP320626], the plasma glucose concentration result in series [1] was “reduced, in a dose related manner”. In the series with hepatocytes, the glucagon stimulated glycogenolysis result was “reduce” and the glucose output result is “reduce”.

Regarding `CCN1C(C)=C(C(=O)OC(C)C)C(c2ccccc2Cl)C2=C1COC2=O` (centres unmarked) [Bay R 3401], in series [2], the arterial plasma glucose entry is reported as “reduced significantly” and the hepatic glucose output result is “reduced significantly”.

Regarding `CN(C)C(=O)[C@H](O)[C@H](Cc1ccccc1)NC(=O)c1cc2cc(Cl)ccc2[nH]1` [CP91149], the plasma glucose concentration entry in series [1] is recorded as “reduced, in a dose related manner”. For the same compound, in the series on hepatocytes, the glucagon stimulated glycogenolysis entry is “reduce” and the glucose output result is listed as “reduce”.
